The supplement of paper PMC10307832

Experiments:
Test in all cases: relative viability (nuclei count vs DMSO), 5 days (fraction); higher = more cells survive
[1] = compound: Cc1ccc2nc(NCCN)c3ncc(C)n3c2c1 + COc1cc2c(Oc3ccc(NC(=O)C4(C(=O)Nc5ccc(F)cc5)CC4)cc3F)ccnc2cc1OCCCN1CCOCC1 [Foretinib] (partner 0.25 µM)
Procedure, shortened: (§1)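 A single step with final 0.05% Triton X-100, 1% formaldehyde and 1 ug/ml Hoechst fixed the cells and stained nuclei 5 days after treatment. Lung cancer cell lines in 1536-well plates had been treated by pin tool the day after seeding with one drug alone or a fixed anchor-drug dose plus five library-drug doses (not always all listed) in √10 steps, and nuclei were counted on 4× images. Relative viability is the ratio of nuclei in treated wells to nuclei in vehicle wells, taken as the median of duplicate plates.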

[2] = compound: Cc1ccc2nc(NCCN)c3ncc(C)n3c2c1 + O=C(CCCCCCC(=O)Nc1ccccc1)NO [Vorinostat] (partner 1 µM)
Procedure, shortened: as §1

[3] = compound: O=C(/C=C/c1ccccc1)NC(NC(=S)Nc1cccc2cccnc12)C(Cl)(Cl)Cl [Salubrinal] + CC(=O)Nc1cccc(-n2c(=O)n(C3CC3)c(=O)c3c(Nc4ccc(I)cc4F)n(C)c(=O)c(C)c32)c1 [Trametinib] (partner 0.02 µM)
Procedure, shortened: as §1

[4] = compound: O=C(/C=C/c1ccccc1)NC(NC(=S)Nc1cccc2cccnc12)C(Cl)(Cl)Cl [Salubrinal] + CC1(C)CCC(c2ccc(Cl)cc2)=C(CN2CCN(c3ccc(C(=O)NS(=O)(=O)c4ccc(N[C@H](CCN5CCOCC5)CSc5ccccc5)c(S(=O)(=O)C(F)(F)F)c4)cc3)CC2)C1 [Navitoclax] (partner 0.5 µM)
Procedure, shortened: as §1

Cell Line	relative viability ([1]; first compound 0.04 µM)	relative viability ([1]; first compound 0.1265 µM)	relative viability ([1]; first compound 0.4 µM)	relative viability ([1]; first compound 1.265 µM)	relative viability ([1]; first compound 4 µM)	relative viability ([2]; first compound 0.04 µM)	relative viability ([2]; first compound 0.1265 µM)	relative viability ([2]; first compound 0.4 µM)	relative viability ([2]; first compound 1.265 µM)	relative viability ([2]; first compound 4 µM)	relative viability ([3]; first compound 0.08 µM)	relative viability ([3]; first compound 0.253 µM)	relative viability ([3]; first compound 0.8 µM)	relative viability ([3]; first compound 2.53 µM)	relative viability ([3]; first compound 8 µM)	relative viability ([4]; first compound 0.08 µM)	relative viability ([4]; first compound 0.253 µM)	relative viability ([4]; first compound 0.8 µM)	relative viability ([4]; first compound 2.53 µM)	relative viability ([4]; first compound 8 µM)
NCI-H2405	1.05	1.04	1.05	0.978	0.986	1.2	0.943	0.946	1.01	0.93	0.653	0.625	0.594	0.605	0.557	0.942	0.957	0.793	0.82	0.905
NCI-H3122	0.928	0.981	0.924	1.07	0.875	1.13	1.28	1.01	1.05	1.37	0.259	0.239	0.282	0.226	0.226	1.09	1.01	1.06	1.06	1.09
PC-3 [JPC-3]	1.1	1.04	0.934	0.986	1.09	0.825	0.752	0.709	0.774	0.734	0.734	0.697	0.65	0.693	0.651	0.859	0.768	0.846	0.766	0.766
PC-14	0.944	0.908	0.984	0.933	0.943	0.766	0.693	0.763	0.718	0.567	0.695	0.753	0.736	0.588	0.629	1.05	1.01	1	1.07	0.864
RERF-LC-KJ	0.911	0.845	0.851	0.796	0.828	0.749	0.773	0.713	0.861	0.712	0.872	0.867	0.938	0.795	0.81	0.858	1.24	0.816	0.945	0.83
SK-LU-1	0.824	0.836	0.9	0.791	0.781	0.851	0.725	0.784	0.856	0.734	0.463	0.468	0.561	0.445	0.447	0.917	0.745	1.02	0.859	0.864
SK-MES-1	1.04	0.91	1.01	0.853	0.875	1.19	1.13	1.03	1.13	1.03	0.634	0.526	0.512	0.561	0.525	1.39	1.12	1.33	1.24	1.12
SW 1573	1.02	0.966	1.09	0.945	0.859	0.85	0.903	0.669	0.865	0.65	0.789	0.615	0.588	0.485	0.469	1.02	1	0.937	0.929	1.01
